This is an account of results in ChEMBL document CHEMBL1139293 (Bioorg Med Chem Lett, 2009).

Active and inactive are the calls of the source. No cut-off for these calls is given here.

For assay [1], the target named is T1, Neuronal acetylcholine receptor; alpha3/beta4 (Homo sapiens, UniProt P30926+P32297). Nature of the assay: Agonist activity at alpha3beta4 nAChR expressed in HEK293 cells at 1 mM by FLIPR membrane potential assay. Format: functional, cell-based.
Assay [2] addresses Neuronal acetylcholine receptor subunit alpha-7 (Homo sapiens, UniProt P36544). Nature of the assay: Displacement of [3H]MLA from alpha7 nAChR/5HT3A receptor expressed in HEK293 cells. The class given is cell-based.
The target of assay [3] is T1, Neuronal acetylcholine receptor; alpha3/beta4. Nature of the assay: Agonist activity at alpha3beta4 nAChR expressed in HEK293 cells by FLIPR membrane potential assay. The class given is functional, cell-based.
Assay [4] has the same target. The assay is described as follows: Agonist activity at alpha3beta4 nAChR expressed in HEK293 cells at 300 uM by FLIPR membrane potential assay. The class given is functional, cell-based.

T1 sequence (P30926 whole entry): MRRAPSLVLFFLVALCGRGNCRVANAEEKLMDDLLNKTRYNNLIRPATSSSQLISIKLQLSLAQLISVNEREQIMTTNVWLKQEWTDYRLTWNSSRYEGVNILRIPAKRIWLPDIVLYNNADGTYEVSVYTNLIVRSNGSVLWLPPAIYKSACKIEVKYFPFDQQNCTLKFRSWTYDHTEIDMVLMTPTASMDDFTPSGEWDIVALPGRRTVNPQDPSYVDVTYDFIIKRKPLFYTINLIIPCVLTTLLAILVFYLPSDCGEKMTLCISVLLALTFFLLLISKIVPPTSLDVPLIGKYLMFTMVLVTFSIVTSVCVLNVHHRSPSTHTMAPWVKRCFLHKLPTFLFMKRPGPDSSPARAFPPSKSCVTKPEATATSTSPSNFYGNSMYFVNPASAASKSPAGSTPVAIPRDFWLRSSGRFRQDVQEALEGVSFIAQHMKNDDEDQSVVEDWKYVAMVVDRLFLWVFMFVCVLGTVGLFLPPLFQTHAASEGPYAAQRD
T1 sequence (P32297 whole entry): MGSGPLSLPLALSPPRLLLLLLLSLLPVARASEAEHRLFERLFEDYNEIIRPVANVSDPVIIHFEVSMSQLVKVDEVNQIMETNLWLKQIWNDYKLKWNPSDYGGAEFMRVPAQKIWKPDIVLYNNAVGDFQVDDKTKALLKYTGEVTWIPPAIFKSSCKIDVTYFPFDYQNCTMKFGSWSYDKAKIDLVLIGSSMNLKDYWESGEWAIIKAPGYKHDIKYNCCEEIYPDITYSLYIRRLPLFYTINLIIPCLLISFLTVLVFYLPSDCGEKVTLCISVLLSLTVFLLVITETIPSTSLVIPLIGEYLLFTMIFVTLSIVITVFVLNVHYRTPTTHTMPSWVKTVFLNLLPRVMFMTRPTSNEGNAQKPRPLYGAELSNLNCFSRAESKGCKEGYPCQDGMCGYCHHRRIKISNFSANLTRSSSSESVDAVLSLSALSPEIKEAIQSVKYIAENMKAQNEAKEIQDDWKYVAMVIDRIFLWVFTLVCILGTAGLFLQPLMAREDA
Sequence of Neuronal acetylcholine receptor subunit alpha-7 (P36544 23-502 limits assumed): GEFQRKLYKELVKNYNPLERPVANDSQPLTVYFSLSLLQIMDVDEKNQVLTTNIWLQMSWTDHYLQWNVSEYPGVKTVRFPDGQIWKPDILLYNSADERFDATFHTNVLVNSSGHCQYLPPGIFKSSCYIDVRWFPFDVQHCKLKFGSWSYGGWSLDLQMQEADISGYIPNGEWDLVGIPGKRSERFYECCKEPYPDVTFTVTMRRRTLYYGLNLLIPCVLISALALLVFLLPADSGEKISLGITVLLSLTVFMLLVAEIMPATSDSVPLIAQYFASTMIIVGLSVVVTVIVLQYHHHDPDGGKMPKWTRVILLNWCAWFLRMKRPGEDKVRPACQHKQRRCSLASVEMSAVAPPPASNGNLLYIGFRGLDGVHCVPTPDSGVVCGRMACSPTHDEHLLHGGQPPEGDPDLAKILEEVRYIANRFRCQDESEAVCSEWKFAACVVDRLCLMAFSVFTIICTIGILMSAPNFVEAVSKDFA

On to `CC(CCNC(=O)N(C)C)N(C)C` (stereo not given), for which the outcome in assay [1] was Active. The Ki in assay [2] is more than 1000 µM. The EC50 in assay [3] (read-out: EC50) is more than 3000 µM.
In turn, `CCCNC(=O)OCCC(C)N(C)C` (stereo not given) displayed a Ki in assay [2] of more than 1000 µM. Also, the EC50 in assay [3] (read-out: EC50) turned out to be 95 µM.
As to `CC(CCOC(=O)NCCCc1ccccc1)N(C)C` (stereo not given), the inhibition constant (Ki) in assay [2] was more than 1000 µM. For the same compound, the EC50 was more than 1000 µM in assay [3] (read-out: EC50) and 1000 µM in assay [3] (read-out: pEC50 (converted)). Moreover, the result in assay [4] was Active.
For `CN(C)C(=O)OCCC(c1ccccc1)N(C)C` (stereo not given), in assay [2], the affinity, expressed as Ki, was 1000 µM and the pKi is listed as 3. For the same compound, in assay [3] (read-out: EC50), the EC50 was more than 1000 µM. Moreover, in assay [3] (read-out: pEC50 (converted)), the EC50 was 1000 µM. Besides, the result in assay [4] was Active.
As for `CCNC(=O)OCCC(C)N(C)C` (stereo not given), in assay [2], the Ki is more than 1000 µM. Besides, the EC50 in assay [3] (read-out: EC50) stood at 55 µM.
The matching figures for `CC(CCOC(N)=O)N(C)C` (stereo not given): more than 1000 µM and 57 µM.
As for `CC(CCOC(=O)N(C)CCO)N(C)C` (stereo not given), the Ki in assay [2] is more than 1000 µM. In addition, the EC50 in assay [3] (read-out: EC50) is 160 µM.
For the compound `CC(CCOC(=S)N(C)C)N(C)C` (stereo not given), in assay [2], the Ki was more than 1000 µM. The EC50 in assay [3] (read-out: EC50) amounted to 53 µM.
The matching figures for `CC(CCSC(=O)N(C)C)N(C)C` (stereo not given): more than 1000 µM and 430 µM.
The compound `CN(C)C(=O)OCCC(c1ccsc1)N(C)C` (stereo not given) yielded a Ki in assay [2] of 1000 µM. In assay [2], this compound returned a pKi of 3. The results for the EC50 in assay [3] (read-out: EC50) and in assay [3] (read-out: pEC50 (converted)) were more than 1000 µM and 1000 µM, respectively. Moreover, the result in assay [4] was Active.
In assay [2], `CNC(=O)/C=C/CC(C)N(C)C` (stereo not given) returned a Ki of more than 1000 µM. Further, in assay [3] (read-out: EC50), the EC50 was found to be 150 µM.
As for `CC(CCOC(=O)N(C)c1ccc(C#N)cc1)N(C)C` (stereo not given), in assay [2], the Ki was 1000 µM and the pKi is given as 3. The EC50 in assay [3] (read-out: EC50) was more than 1000 µM. Besides, the EC50 in assay [3] (read-out: pEC50 (converted)) is 1000 µM. Further, the result in assay [4] was Active.
For the compound `CN(C)C(=O)OCCC(CO)N(C)C` (stereo not given), the result in assay [1] and in assay [4] was Active. This compound also registered a Ki in assay [2] of more than 1000 µM. For the same compound, the EC50 in assay [3] (read-out: EC50) is more than 3000 µM.
Take `CC(CCOC(=O)N(C)c1ccccc1)N(C)C` (stereo not given): in assay [2], the affinity, expressed as Ki, was 1000 µM and the pKi was 3. Besides, the EC50 in assay [3] (read-out: EC50) was determined as 51 µM.
As for `CC(CCNC(=O)Nc1ccccc1)N(C)C` (stereo not given), the outcome in assay [1] was Active. In addition, the Ki in assay [2] is more than 1000 µM. Moreover, in assay [3] (read-out: EC50), the EC50 was more than 3000 µM.
The compound `CC(CCCC(=O)N(C)C)N(C)C` (stereo not given) returned a Ki in assay [2] of more than 1000 µM. Also, the EC50 in assay [3] (read-out: EC50) was found to be 1000 µM. The result in assay [4] was Active.
Take `CC(CCOC(=O)N(C)Cc1ccccc1)N(C)C` (stereo not given): in assay [2], the affinity, expressed as Ki, was 1000 µM and the pKi turned out to be 3. The EC50 in assay [3] (read-out: EC50) was determined as 6.7 µM.
In assay [2], `CC(CCOC(=O)N(C)c1ccc(Cl)cc1)N(C)C` (stereo not given) gave a Ki of 1000 µM and a pKi of 3. Besides, the EC50 in assay [3] (read-out: EC50) stood at 28 µM. The EC50 in assay [3] (read-out: pEC50 (converted)) was 31.6 µM.
The compound `CC(C/C=C/C(=O)N(C)C)N(C)C` (stereo not given) returned a Ki in assay [2] of more than 1000 µM. In addition, the EC50 in assay [3] (read-out: EC50) was found to be 91 µM.
The matching figures for `CC(CCOC(=O)NCCO)N(C)C` (stereo not given): more than 1000 µM and 300 µM.
